Data as given in PMC8330742, “New benzothieno[2,3-c]pyridines as non-steroidal CYP17 inhibitors: design, synthesis, anticancer screening, apoptosis induction, and in silico ADME profile studies” (Journal of Enzyme Inhibition and Medicinal Chemistry, 2021).

Columns and labels:
CAKI-1 = assay: NCI-60 SRB screen; type: cell-based, human; details: Homo sapiens; single dose 10^−5 M; CAKI-1, Renal cancer; read-out: Growth inhibition (%)
EKVX = assay: NCI-60 SRB screen; type: cell-based, human; details: Homo sapiens, single dose 10^−5 M, Non-small cell lung carcinoma, read-out: Growth inhibition (%)
OVCAR-4 = assay: NCI-60 SRB screen; type: cell-based, human; details: Homo sapiens; single dose 10^−5 M; OVCAR-4, Ovarian cancer; read-out: Growth inhibition (%)
IGROV1 = assay: NCI-60 SRB screen; type: cell-based, human; details: Homo sapiens, IGROV-1; single dose 10^−5 M; IGROV1, Ovarian cancer; read-out: Growth inhibition (%)
UO-31 = assay: NCI-60 SRB screen; type: cell-based, human; details: Homo sapiens; single dose 10^−5 M; UO-31, Renal cancer; read-out: Growth inhibition (%)
[1] = test system: panel of 60 cancer cell lines; assay: NCI-60 SRB screen, mean or range over the panel; type: cell-based, human; details: Homo sapiens; mean over the cell lines; single dose 10^−5 M; read-out: Mean growth inhibition (%)
SF-268 = assay: NCI-60 SRB screen; type: cell-based, human; details: Homo sapiens; single dose 10^−5 M; SF-268, CNS cancer; read-out: Growth inhibition (%)
MALME-3M = assay: NCI-60 SRB screen; type: cell-based, human; details: Homo sapiens, single dose 10^−5 M, Melanoma, read-out: Growth inhibition (%)
HCT-15 = assay: NCI-60 SRB screen; type: cell-based, human; details: Homo sapiens; single dose 10^−5 M; HCT-15, Colon cancer; read-out: Growth inhibition (%)
OVCAR-3 = assay: NCI-60 SRB screen; type: cell-based, human; details: Homo sapiens; single dose 10^−5 M; OVCAR-3, Ovarian cancer; read-out: Growth inhibition (%)
786-0 = assay: NCI-60 SRB screen; type: cell-based; details: Homo sapiens; single dose 10^−5 M; 786-0, Renal cancer; read-out: Growth inhibition (%)
UACC-257 = assay: NCI-60 SRB screen; type: cell-based, human; details: Homo sapiens; single dose 10^−5 M; UACC-257, Melanoma; read-out: Growth inhibition (%)
NCI-H23 = assay: NCI-60 SRB screen; type: cell-based, human; details: Homo sapiens; single dose 10^−5 M; NCI-H23, Non-small cell lung carcinoma; read-out: Growth inhibition (%)
NCI/ADR-RES = assay: NCI-60 SRB screen; type: cell-based, human; details: Homo sapiens, single dose 10^−5 M, Ovarian cancer, read-out: Growth inhibition (%)
CCRF-CEM = assay: NCI-60 SRB screen; type: cell-based; details: Homo sapiens, single dose 10^−5 M, Leukaemia, read-out: Growth inhibition (%)
A549/ATCC = assay: NCI-60 SRB screen; type: cell-based, human; details: Homo sapiens, single dose 10^−5 M, Non-small cell lung carcinoma, read-out: Growth inhibition (%)
SK-OV-3 = assay: NCI-60 SRB screen; type: cell-based, human; details: Homo sapiens; single dose 10^−5 M; SK-OV-3, Ovarian cancer; read-out: Growth inhibition (%)
SK-MEL-28 = assay: NCI-60 SRB screen; type: cell-based; details: Homo sapiens; single dose 10^−5 M; SK-MEL-28, Melanoma; read-out: Growth inhibition (%)
K-562 = assay: NCI-60 SRB screen; type: cell-based, human; details: Homo sapiens, K562; single dose 10^−5 M; K-562, Leukaemia; read-out: Growth inhibition (%)
RXF 393 = assay: NCI-60 SRB screen; type: cell-based, human; details: Homo sapiens; single dose 10^−5 M; RXF 393, Renal cancer; read-out: Growth inhibition (%)
HT-29 = assay: NCI-60 SRB screen; type: cell-based; details: Homo sapiens; single dose 10^−5 M; HT-29, Colon cancer; read-out: Growth inhibition (%)
HCT-116 = assay: NCI-60 SRB screen; type: cell-based, human; details: Homo sapiens; single dose 10^−5 M; HCT-116, Colon cancer; read-out: Growth inhibition (%)
SK-MEL-5 = assay: NCI-60 SRB screen; type: cell-based, human; details: Homo sapiens; single dose 10^−5 M; SK-MEL-5, Melanoma; read-out: Growth inhibition (%)
SF-295 = assay: NCI-60 SRB screen; type: cell-based, human; details: Homo sapiens; single dose 10^−5 M; SF-295, CNS cancer; read-out: Growth inhibition (%)
NCI-H322M = assay: NCI-60 SRB screen; type: cell-based, human; details: Homo sapiens, single dose 10^−5 M, Non-small cell lung carcinoma, read-out: Growth inhibition (%)
SW-620 = assay: NCI-60 SRB screen; type: cell-based; details: Homo sapiens; single dose 10^−5 M; SW-620, Colon cancer; read-out: Growth inhibition (%)
KM12 = assay: NCI-60 SRB screen; type: cell-based, human; details: Homo sapiens; single dose 10^−5 M; KM12, Colon cancer; read-out: Growth inhibition (%)
HOP-92 = assay: NCI-60 SRB screen; type: cell-based, human; details: Homo sapiens; single dose 10^−5 M; HOP-92, Non-small cell lung carcinoma; read-out: Growth inhibition (%)
COLO 205 = assay: NCI-60 SRB screen; type: cell-based, human; details: Homo sapiens; single dose 10^−5 M; COLO 205, Colon cancer; read-out: Growth inhibition (%)
HOP-62 = assay: NCI-60 SRB screen; type: cell-based, human; details: Homo sapiens; single dose 10^−5 M; HOP-62, Non-small cell lung carcinoma; read-out: Growth inhibition (%)
MOLT-4 = assay: NCI-60 SRB screen; type: cell-based; details: Homo sapiens; single dose 10^−5 M; MOLT-4, Leukaemia; read-out: Growth inhibition (%)
NCI-H522 = assay: NCI-60 SRB screen; type: cell-based, human; details: Homo sapiens; single dose 10^−5 M; NCI-H522, Non-small cell lung carcinoma; read-out: Growth inhibition (%)
MDA-MB-435 = assay: NCI-60 SRB screen; type: cell-based; details: Homo sapiens, MDA-MB-435, read-out: Growth inhibition (%)
M14 = assay: NCI-60 SRB screen; type: cell-based, human; details: Homo sapiens; single dose 10^−5 M; M14, Melanoma; read-out: Growth inhibition (%)
SR = assay: NCI-60 SRB screen; type: cell-based; details: Homo sapiens, single dose 10^−5 M, Leukaemia, read-out: Growth inhibition (%)
SN12C = assay: NCI-60 SRB screen; type: cell-based, human; details: Homo sapiens, SN12C; single dose 10^−5 M; SN 12 C, Renal cancer; read-out: Growth inhibition (%)
ACHN = assay: NCI-60 SRB screen; type: cell-based; details: Homo sapiens, single dose 10^−5 M, Renal cancer, read-out: Growth inhibition (%)
NCI-H226 = assay: NCI-60 SRB screen; type: cell-based, human; details: Homo sapiens; single dose 10^−5 M; NCI-H226, Non-small cell lung carcinoma; read-out: Growth inhibition (%)
HL-60(TB) = assay: NCI-60 SRB screen; type: cell-based, human; details: Homo sapiens; single dose 10^−5 M; HL-60(TB), Leukaemia; read-out: Growth inhibition (%)
OVCAR-8 = assay: NCI-60 SRB screen; type: cell-based, human; details: Homo sapiens; single dose 10^−5 M; OVCAR-8, Ovarian cancer; read-out: Growth inhibition (%)
SK-MEL-2 = assay: NCI-60 SRB screen; type: cell-based, human; details: Homo sapiens; single dose 10^−5 M; SK-MEL-2, Melanoma; read-out: Growth inhibition (%)
NCI-H460 = assay: NCI-60 SRB screen; type: cell-based, human; details: Homo sapiens; single dose 10^−5 M; NCI-H460, Non-small cell lung carcinoma; read-out: Growth inhibition (%)
TK-10 = assay: NCI-60 SRB screen; type: cell-based, human; details: Homo sapiens; single dose 10^−5 M; TK-10, Renal cancer; read-out: Growth inhibition (%)
UACC-62 = assay: NCI-60 SRB screen; type: cell-based, human; details: Homo sapiens; single dose 10^−5 M; UACC-62, Melanoma; read-out: Growth inhibition (%)

`O=[N+]([O-])c1cccc(C2NC(N3CCCCC3)=C(Cl)c3c2sc2c(F)cccc32)c1` (centres unmarked) [Compound 8c, 4-Chloro-3-(piperidin-1-yl)-8-fluoro-1-(3-nitrophenyl)-1,2-dihydro [1]benzothieno[2,3-c]pyridine] was tested. Which inhibition at 10 µM (CAKI-1) did it give?
Its inhibition at 10 µM is 18.8%.

What about the inhibition at 10 µM (EKVX) of the same molecule?
The inhibition at 10 µM was 19.1%.

And the inhibition at 10 µM (OVCAR-4)?
The inhibition at 10 µM was 12.3%.

What about the inhibition at 10 µM (IGROV1) of the same molecule?
Its inhibition at 10 µM is 17.4%.

And the inhibition at 10 µM (UO-31)?
The inhibition at 10 µM was 38%.

And the inhibition at 10 µM [1]?
The inhibition at 10 µM was 7.22%.

And the inhibition at 10 µM (SF-268)?
The inhibition at 10 µM was 6.19%.

What about the inhibition at 10 µM (MALME-3M) of the same molecule?
Its inhibition at 10 µM is 4.61%.

And the inhibition at 10 µM (HCT-15)?
The inhibition at 10 µM was 3.84%.

And the inhibition at 10 µM (OVCAR-3)?
The inhibition at 10 µM was -1.68%.

And the inhibition at 10 µM (786-0)?
The inhibition at 10 µM was -0.24%.

And the inhibition at 10 µM (UACC-257)?
The inhibition at 10 µM was -10.3%.

What about the inhibition at 10 µM (NCI-H23) of the same molecule?
Its inhibition at 10 µM is 3.42%.

And the inhibition at 10 µM (NCI/ADR-RES)?
The inhibition at 10 µM was -2.62%.

What about the inhibition at 10 µM (CCRF-CEM) of the same molecule?
Its inhibition at 10 µM is 30.3%.

And the inhibition at 10 µM (A549/ATCC)?
Its inhibition at 10 µM is 5.05%.

And the inhibition at 10 µM (SK-OV-3)?
The inhibition at 10 µM was 9.9%.

What about the inhibition at 10 µM (SK-MEL-28) of the same molecule?
Its inhibition at 10 µM is -16.7%.

And the inhibition at 10 µM (K-562)?
Its inhibition at 10 µM is 14.1%.

And the inhibition at 10 µM (RXF 393)?
The inhibition at 10 µM was -15.6%.

And the inhibition at 10 µM (HT-29)?
Its inhibition at 10 µM is -2.62%.

What about the inhibition at 10 µM (HCT-116) of the same molecule?
Its inhibition at 10 µM is 1.95%.

What about the inhibition at 10 µM (SK-MEL-5) of the same molecule?
Its inhibition at 10 µM is 0.27%.

What about the inhibition at 10 µM (SF-295) of the same molecule?
The inhibition at 10 µM was -6.6%.

And the inhibition at 10 µM (NCI-H322M)?
Its inhibition at 10 µM is -0.59%.

And the inhibition at 10 µM (SW-620)?
Its inhibition at 10 µM is 1.71%.

What about the inhibition at 10 µM (KM12) of the same molecule?
The inhibition at 10 µM was 3.41%.

And the inhibition at 10 µM (HOP-92)?
The inhibition at 10 µM was 9.27%.

What about the inhibition at 10 µM (COLO 205) of the same molecule?
The inhibition at 10 µM was -12.7%.

And the inhibition at 10 µM (HOP-62)?
The inhibition at 10 µM was 5.22%.

And the inhibition at 10 µM (MOLT-4)?
Its inhibition at 10 µM is 35.6%.

What about the inhibition at 10 µM (NCI-H522) of the same molecule?
Its inhibition at 10 µM is 17.7%.

What about the inhibition at 10 µM (MDA-MB-435) of the same molecule?
The inhibition at 10 µM was 2%.

And the inhibition at 10 µM (M14)?
The inhibition at 10 µM was 1.39%.

What about the inhibition at 10 µM (SR) of the same molecule?
The inhibition at 10 µM was 10.1%.

What about the inhibition at 10 µM (SN12C) of the same molecule?
The inhibition at 10 µM was 3.66%.

And the inhibition at 10 µM (ACHN)?
Its inhibition at 10 µM is 6.2%.

What about the inhibition at 10 µM (NCI-H226) of the same molecule?
Its inhibition at 10 µM is 28.2%.

And the inhibition at 10 µM (HL-60(TB))?
Its inhibition at 10 µM is 18.7%.

What about the inhibition at 10 µM (OVCAR-8) of the same molecule?
The inhibition at 10 µM was -6.18%.

What about the inhibition at 10 µM (SK-MEL-2) of the same molecule?
The inhibition at 10 µM was 2.66%.

And the inhibition at 10 µM (NCI-H460)?
Its inhibition at 10 µM is 3%.

And the inhibition at 10 µM (TK-10)?
Its inhibition at 10 µM is -22.4%.

What about the inhibition at 10 µM (UACC-62) of the same molecule?
Its inhibition at 10 µM is 8.57%.
